We go through one molecule from patent publication US20220175882A1, “BETA-CASEIN A2 AND REDUCING OR […] OF LACTOSE INTOLERANCE” (THE A2 MILK COMPANY LIMITED, priority 2013, published 2022).

“Also recorded” adds a separate entry of the source. Where a SMILES comes first, the peptide text is derived from it.

What is called IC50 is the point on the concentration scale where inhibition reaches its midpoint.

In one experiment the test system is SH-SY5Y cells. Kind of experiment: DNA methylation by MBD-seq (differentially methylated transcripts). It is filed as cell-based, human. Particulars: cells treated 4 hours with 1 μM BCM-7; FDR<0.1, p<0.05. The procedure: Global DNA methylation levels induced by BCM-7 were investigated using methyl-CpG binding domain (MBD) protein-enriched genome sequencing (MBD-seq) as described previously (Trivedi M., et al., Mol. Pharm. 2014), whereas mRNA translation microarray data was obtained using Agilent V3 microarray chip, from non-treated control SH-SY5Y cells and cells treated for 4 hours with 1 μM BCM-7.
Genomic DNA was extracted from samples with the Easy DNA kit (Invitrogen K1800-01) using the appropriate protocol for cell lines. Fragmentation was performed on Covaris S2 with the following settings: duty cycle 10%, intensity 5, 200 cycles per burst during 200 sec. Fragments were obtained having an average length of 200 bp. The power mode is frequency sweeping, temperature 6-8° C., water level 12. A maximum of 5 μg was loaded in 130 μl Tris-EDTA in a microtube with AFA intensifier. For samples with less DNA input (down to 500 ng) the DNA was diluted 1:5 in TrisEDTA. DNA with an input from 5-3 μg was analysed on the Agilent 2100 using a DNA 1000 chip. DNA with an input lower than 3 μg was concentrated in a rotary evaporator to 25 μl and the fragment distribution was checked on a high sensitivity DNA chip. Methylated DNA was captured using the MethylCap kit (Diagenode, Belgium). The yield was typically between 0.5 and 8 ng of total captured DNA. Fragments were subsequently sequenced using an Illumina Genome Analyzer II. The concentrations of fragmented and captured DNA were determined on a Fluostar Optima plate reader with the Quant-iT PicoGreen dsDNA Assay Kit (Invitrogen P7589) at 480/520 nm.
To prepare the DNA library, a DNA Sample Prep Master Mix Set 1 (NEB E6040) was used in combination with a Multiplexing Sample Preparation Oligo Kit (96 samples, Illumina PE-400-1001). The entire fragmented DNA was utilised and followed the NEB protocols, using the multiplexing sequencing adapters provided in the Multiplexing Sample Preparation Oligo Kit. Size selection of the library was carried out on a 2% agarose gel (Low Range Ultra Agarose Biorad 161-3107). […] A fragment of 300 bps +/−50 bps was excised and eluted on a Qiagen Gel Extraction Kit column (Qiagen 28704) and eluted in 23 μl EB.
The Illumina library amplification index protocol was used with the following alterations: 22 μl DNA was used and performed 21 cycles run. The sample was purified on a Qiaquick PCR Purification column (Qiagen 28101) and eluted in 50 μl EB, 1:5 diluted, and concentrated in a rotary evaporator to 10 μl. 1 μl was applied to a Agilent 2100 HS DNA chip and the concentration was determined by smear analysis on the Agilent 2100. The samples were diluted to 10 nM. After denaturation with NaOH the samples were diluted to […]. The Paired-End flow cell was prepared according to the Cluster Station User Guide. […]

Experiment [1] deals with SH-SY5Y human neuronal cells. How it is done:
(§1) Pre-treatment in cells was performed for different time points for 30 min, 4, 24 and 48 h as described previously (Trivedi M., et al.; Mol. Pharm., 2014). SH-SY5Y human neuronal cells and Caco-2 Gut epithelial cells were plated in six-well plates and were pretreated with drugs and incubated for various times prior to measuring uptake. Media were aspirated and cells were washed with 600 μL of HBSS at 37° C. Non-radioactive HBSS was aspirated, replaced with 600 μL of 37° C. HBSS containing [^35S]-cysteine (1 μCl/1 mL), 10 μM unlabelled cysteine and 100 μM DTT, and the cells were incubated for 5 min. The [^35S]-cysteine/HBSS mixture was aspirated and treatment was terminated by two washes with ice-cold HBSS. Cells were then lysed with 600 μL of dH2O, scraped, collected in 1.5 mL microcentrifuge tubes, and sonicated for 10 s. 100 μL of each sample was aliquoted for protein assay. 200 μL of each sample (in triplicate) was aliquoted into scintillation vials with 4 mL of scintillation fluid, vortexed, and counted for radioactivity (normalised against protein content). […] The symbol * used in these figures indicates a statistically significant difference (p<0.05) compared against the untreated control, and the symbol # indicates a statistically significant difference (p<0.005) compared against the untreated control.

For experiment [2], the system named is Caco-2 Gut epithelial cells. Particulars: read-out: IC50, inhibition of cysteine uptake; GI epithelial cells (FIG. 4). How it is done:
as §1

A further experiment has as its system SH-SY5Y neuronal cells. Nature of the experiment: Intracellular cysteine, GSH and SAM/SAH levels by HPLC with electrochemical detection. It is filed as cell-based, human. How it is done:
Media was aspirated and the cells were washed twice with 1 mL of ice cold HBSS. HBSS was aspirated and 0.6 mL ice cold dH2O was added to the cells. The cells were scraped from the flask/dish and suspended in dH2O. […] The remaining lysate was added to a microcentrifuge tube and an equal volume of 0.4 N perchloric acid was added, followed by incubation on ice for 5 min. Samples were centrifuged at 5,000×g and the supernatant transferred to new microcentrifuge tubes.
The separation of redox and methylation pathway metabolites was accomplished using an Agilent Eclipse XDB-C8 analytical column (3×150 mm; 3.5 μm) and an Agilent Eclipse XDB-C8 (4.6×12.5 mm; 5 μm) guard column. […] The flow rate was initially set at 0.6 mL/min and a step gradient was used: 0-9 min 0% B, 9-19 min 50% B, 19-30 min 50% B. The column was then equilibrated with 5% B for 12 min prior to the next run. Temperature was maintained at 27° C. […] Sample concentrations were determined from the peak areas of metabolites using standard calibration curves and ESA-supplied HPLC software. Sample concentrations were normalised against protein content. In some cases samples were diluted in mobile phase as needed or up to 50 μl of sample was injected to assure that thiol levels were within the range of the standard curve.

`CC[C@H](C)[C@H](NC(=O)[C@@H]1CCCN1C(=O)CNC(=O)[C@@H]1CCCN1C(=O)[C@H](Cc1ccccc1)NC(=O)[C@@H]1CCCN1C(=O)[C@@H](N)Cc1ccc(O)cc1)C(=O)O` [BCM-7, beta-casomorphin-7] (H-YPFPGPI-OH; N-terminus and C-terminus assumed): in the experiment with SH-SY5Y cells, the “Differentially methylated transcripts: Galactose metabolism” value is “GALK2 and GALR2 and GALT and GALR1 and CHST1 and NPY and PYY and GKN1”; the “Differentially methylated transcripts: Gastric Acid secretion” value was “SCTR and OXTR and VIPR1 and SST and PPARGC1A and PGC”; the “Differentially methylated transcripts: Lactose Biosynthetic pathway” value is “LGALS12; also recorded: B4GALT1; also recorded: B4GALT2”; the “Differentially methylated transcripts: Lactose metabolism” value is on record as “LCT”. Further, in experiment [1] (in presence of CTAP (selective μ-antagonist) or naltrindole (delta antagonist), FIG. 6), the “Receptor mediating the effect on cysteine uptake” value is recorded as “μ-opioid receptor mediated”. In experiment [1] (neuronal cells and GI epithelial cells (FIG. 5), 30 min to 48 h exposure), the “Time course of inhibition of cysteine uptake” value was “fully developed after 30 minutes and was sustained through 48 hours”. Besides, the IC50 in experiment [1] (read-out: IC50, inhibition of cysteine uptake, neuronal cells (FIG. 4)) is 1.31 nM. In experiment [2], the IC50 is 15.9 nM. Also, in the experiment with SH-SY5Y neuronal cells (30 min, 4 h, 24 h), the “Cysteine and glutathione (GSH) levels” value is reported as “time-dependent decreases”. Also, in the experiment with SH-SY5Y neuronal cells (different time points (FIG. 7)), the “Methylation capacity (SAM/SAH ratio)” value is on record as “affected”.
